According to US9309511B2, “Functional assay for identification of loss-of-function mutations in genes” (priority 2007, dated 2016):
Values belong to the compound of their own block, whether it stands above or below them.

What was measured:
[1] = tested on: BRCA2^wt/Δex11 cells (DLD1); experiment: Cell proliferation assay upon drug treatment, hemizygous clone; assay type: cell-based, human; conditions: 6 days
Description: (§1) DLD1 cells were obtained from ATCC, cultured in conventional media supplemented with 10% fetal calf serum, L-glutamine and penicillin/streptomycin.
(§2) In each well of 96-well plates, 1000 cells were plated, allowed to adhere and treated with various drugs. The drugs were obtained from Sigma (St. Louis, Mo.) except for SJG-136 which was generously provided by Ipsen Ltd. and the National Cancer Institute, NIH. The cells were washed after 6 days and lysed in 100 uL of water. Fluorescence was measured after addition of 0.5% Picogreen® (Molecular Probes, Eugene, Oreg.) using a fluorometer (Fusion®, Perkin Elmer, Shelton, Conn.). Three independent experiments were performed per drug.

[2] = tested on: BRCA2^Δex11/Δex11 cells (DLD1); experiment: Cell proliferation assay upon drug treatment, BRCA2 knock-out cells; assay type: cell-based, human; conditions: for FoldΔ: ratio of the IC50 of cells having the hemizygous wild-type allele to the IC50 of cells having the mutated allele: BRCA2^Δex11/Δex11 cells vs control cells, cell proliferation; for FoldΔ: ratio of the IC50 of cells having the hemizygous wild-type allele to the IC50 of cells having the mutated allele / Sensitivity of BRCA2-deficient cells compared to parental and heterozygous cells (in words): 6 days; for Sensitivity of BRCA2-deficient cells compared to parental and heterozygous cells (in words): cell proliferation following drug treatment
Description: as §1, §2

BRCA2^Δex11/Y3308Y cells = experiment: Cell proliferation assay upon drug treatment, SyVaL clone Y3308Y; assay type: cell-based, human; conditions: 6 days
Description: (§3) Alternately, exon 27 was targeted in the hemizygous cells using a construct whose right homology arm included intact exon 27 and individual sequence variants. Homologous integration of the construct, the presence of desired sequence variants and allelic phase of the construct were determined by allele-specific PCR and sequencing. An analogous vector design was used by Hurley et al. to introduce an ATR mutation into alleles of a human cell (Hurley, P. J. et al., Oncogene. 2007. 26, 2535-42, incorporated herein by reference).
as §2

BRCA2^Δex11/P3292L cells = experiment: Cell proliferation assay upon drug treatment, SyVaL clone P3292L; assay type: cell-based, human; conditions: 6 days
Description: as §3, §2

BRCA2^Δex11/P3280H cells = experiment: Cell proliferation assay upon drug treatment, SyVaL clone P3280H; assay type: cell-based, human; conditions: 6 days
Description: as §3, §2

BRCA2^Δex11/S3291A cells = experiment: Cell proliferation assay upon drug treatment, SyVaL clone S3291A; assay type: cell-based, human; conditions: 6 days
Description: as §3, §2

BRCA2 proficient cells = experiment: Rad51 focus-formation (immunofluorescence); assay type: cell-based, human; conditions: MMC 2.4 μg/ml, 24 h incubation
Description: Cells were treated with MMC (2.4 μg/ml) or gamma irradiation and fixed in PBS/2% paraformaldehyde after 24 h incubation. Following permeabilization in PBS/0.5% Triton X-100 and blocking for 30 min in PBS/1% bovine serum albumin/0.15% glycine, the cells were incubated with an anti-Rad51 antibody (1:200, Calbiochem, San Diego, Calif.) for 2 h. Cells were then washed and incubated with a […] (1:200, Alexa® 488, Molecular Probes, Eugene, Oreg.) for 1 h. After washing, slides were mounted and analyzed by a fluorescent microscope (Zeiss Axiover 135, Maple Grove, Minn.) and Metamorph 4.6 software (Universtal Imaging, Downington, Pa.). Pictures were acquired, keeping exposure time and software settings constant for all samples.
Baseline or induced Rad51 focus formation was considered “negative” when less than 5% or 20%, respectively, of cells had more than 5 nuclear foci and “positive” when more than 5% or 30%, respectively, of cells had more than 5 nuclear foci. Intermediate phenotypes were not observed.

BRCA2^Δex11/Δex11 cells = experiment: Chromosome aberration assay; assay type: cell-based, human; conditions: BRCA2^Δex11/Δex11 vs BRCA2^wt/Δex11, MMC at equitoxic doses, 24 h
Description: Cells were treated with equitoxic doses of MMC (80 nM for BRCA2^wt/Δex11 and 6 nM for BRCA2^Δex11/Δex11) for 24 h. For each sample, 50 metaphases were analyzed using standard techniques by a core facility.

BRCA2-deficient cells = experiment: Cell-cycle analysis by flow cytometry; assay type: cell-based, human; conditions: 48 h after MMC treatment
Description: Cells were treated with MMC for 48 hours, processed as described previously (Vindelov, L. L., et al., Cytometry 1983. 3: 323-7, incorporated herein by reference) and analyzed by flow cytometry.

[3] = tested on: ATR^s/s DLD1 colorectal cancer cells; experiment: Proliferation assay for MMC sensitivity in ATR knock-in cells; assay type: cell-based, human; conditions: 6 d after treatment
Description: For siRNA experiments, the cells were plated in 6-well plates at 500,000 cells/well at 24 h after siRNA transfection. Separate aliquots of each sample were counted at six different time points one to four days after transfection, using two separate aliquots for each time point. Dead cells were separately determined by trypan-blue exclusion and were negligible in number in all samples (<2%). For comparisons between parental cells and FANCD2^+/−. clones, 500,000 cells/well were plated and counted at six time points between 0 and 48 h. Two independent experiments were performed. For MMC sensitivity studies, Picogreen® (Invitrogen) proliferation assays were performed in quadruplicate as described in Gallmeier et al., 2006.

BRCA2^Δex11/Y3308X cells = experiment: Cell proliferation assay upon drug treatment, SyVaL clone Y3308X; assay type: cell-based, human; conditions: 6 days
Description: as §3, §2

BRCA2^Δex11/S3291E cells = experiment: Cell proliferation assay upon drug treatment, SyVaL clone S3291E; assay type: cell-based, human; conditions: 6 days
Description: as §3, §2

[4] = tested on: fibroblasts from a Fanconi D1 patient; conditions: reported by Treszezamsky, Cancer Res. 2007; cited from earlier work
[5] = tested on: BRCA2-deficient mouse thymocytes; conditions: Flores et al., Mol Carcinog 2002; cited from earlier work
[6] = tested on: BRCA2-deficient mouse small intestines; conditions: Walker et al., J Biol Chem. 2004; cited from earlier work

Compound: CO[C@@]12[C@H](COC(N)=O)C3=C(C(=O)C(C)=C(N)C3=O)N1C[C@@H]1N[C@@H]12 [MMC, mitomycin C]
- FoldΔ: ratio of the IC50 of cells having the hemizygous wild-type allele to the IC50 of cells having the mutated allele [1]: NoΔ
- FoldΔ: ratio of the IC50 of cells having the hemizygous wild-type allele to the IC50 of cells having the mutated allele ([1]; listed as mitomycin): absence of mitomycin hypersensitivity
- FoldΔ: ratio of the IC50 of cells having the hemizygous wild-type allele to the IC50 of cells having the mutated allele [2]: 20-foldΔ
- Sensitivity of BRCA2-deficient cells compared to parental and heterozygous cells (in words) [2]: greatly increased sensitivity
- FoldΔ: ratio of the IC50 of cells having the hemizygous wild-type allele to the IC50 of cells having the mutated allele (BRCA2^Δex11/Y3308Y cells): did not differ from control cells and NoΔ
- FoldΔ: ratio of the IC50 of cells having the hemizygous wild-type allele to the IC50 of cells having the mutated allele (BRCA2^Δex11/P3292L cells): not significantly more sensitive and NoΔ
- FoldΔ: ratio of the IC50 of cells having the hemizygous wild-type allele to the IC50 of cells having the mutated allele (BRCA2^Δex11/P3280H cells): not significantly more sensitive and NoΔ
- FoldΔ: ratio of the IC50 of cells having the hemizygous wild-type allele to the IC50 of cells having the mutated allele (BRCA2^Δex11/S3291A cells): NoΔ
- Cells with induced Rad51 foci (more than 5 foci) (BRCA2 proficient cells): 60-80%
- Rates of chromosomal aberrations, including breaks and radials (BRCA2^Δex11/Δex11 cells): much higher rates of chromosomal aberrations
- Cell cycle effect (genotype-dependent toxicity) (BRCA2-deficient cells): profound G2/M arrest
- MMC sensitivity compared to control cells [3]: strikingly more sensitive

Compound: COc1ccc([C@@H]2CC(=O)c3c(O)cc(O[C@@H]4O[C@H](CO[C@@H]5O[C@@H](C)[C@H](O)[C@@H](O)[C@H]5O)[C@@H](O)[C@H](O)[C@H]4O)cc3O2)cc1O [hesperidin]
- Sensitivity of BRCA2-deficient cells compared to parental and heterozygous cells (in words) [2]: No differences in sensitivities

- FoldΔ: ratio of the IC50 of cells having the hemizygous wild-type allele to the IC50 of cells having the mutated allele [2]: 20 fold
Compound: Cc1nc2c(O)cccc2c(=O)[nH]1 [NU1025]

Compound: C=C1C[C@H]2C=Nc3cc(OCCCOc4cc5c(cc4OC)C(=O)N4CC(=C)C[C@H]4C=N5)c(OC)cc3C(=O)N2C1 [SJG]
- Sensitivity of BRCA2-deficient cells compared to parental and heterozygous cells (in words) [2]: greatly increased sensitivity

Compound: O=C1[O][Pt]2([NH][C@@H]3CCCC[C@H]3[NH]2)[O]C1=O [oxaliplatin]
- Sensitivity of BRCA2-deficient cells compared to parental and heterozygous cells (in words) [2]: greatly increased sensitivity

Compound: C#C[C@]1(O)CC[C@H]2[C@@H]3CCC4=CC(=O)CC[C@@H]4[C@H]3CC[C@@]21C [norethindrone]
- Sensitivity of BRCA2-deficient cells compared to parental and heterozygous cells (in words) [2]: No differences in sensitivities

Compound: N[C@@H](Cc1ccc(N(CCCl)CCCl)cc1)C(=O)O [melphalan]
- Sensitivity of BRCA2-deficient cells compared to parental and heterozygous cells (in words) [2]: greatly increased sensitivity

Compound: CC[C@]1(O)C[C@@H]2CN(CCc3c([nH]c4ccccc34)[C@@](C(=O)OC)(c3cc4c(cc3OC)N(C)[C@H]3[C@@](O)(C(=O)OC)[C@H](OC(C)=O)[C@]5(CC)C=CCN6CC[C@]43[C@@H]65)C2)C1 [vinblastine]
- Sensitivity of BRCA2-deficient cells compared to parental and heterozygous cells (in words) [2]: No differences in sensitivities

Compound: Nc1ccn([C@@H]2O[C@H](CO)[C@@H](O)C2(F)F)c(=O)n1 [gemcitabine]
- Sensitivity of BRCA2-deficient cells compared to parental and heterozygous cells (in words) [2]: No differences in sensitivities

Compound: COc1cc(/C=C/C(=O)CC(=O)/C=C/c2ccc(O)c(OC)c2)ccc1O [curcumin]
- Sensitivity of BRCA2-deficient cells compared to parental and heterozygous cells (in words) [2]: No differences in sensitivities

Compound: CC[C@@]1(O)C(=O)OCc2c1cc1n(c2=O)Cc2cc3ccccc3nc2-1 [camptothecin]
- FoldΔ: ratio of the IC50 of cells having the hemizygous wild-type allele to the IC50 of cells having the mutated allele [2]: 6 fold

- FoldΔ: ratio of the IC50 of cells having the hemizygous wild-type allele to the IC50 of cells having the mutated allele [1]: NoΔ
- FoldΔ: ratio of the IC50 of cells having the hemizygous wild-type allele to the IC50 of cells having the mutated allele [2]: 10-foldΔ
- FoldΔ: ratio of the IC50 of cells having the hemizygous wild-type allele to the IC50 of cells having the mutated allele ([2]; listed as etoposide): 10 fold
Compound: COc1cc([C@@H]2c3cc4c(cc3[C@@H](O[C@@H]3O[C@@H]5CO[C@@H](C)O[C@H]5[C@H](O)[C@H]3O)[C@H]3COC(=O)[C@H]23)OCO4)cc(OC)c1O [Etoposide, etoposide]
- Etoposide hypersensitivity in combination with other anticancer agents ([2]; BRCA2-deficient cells): additive to, but not synergistic with
- FoldΔ: ratio of the IC50 of cells having the hemizygous wild-type allele to the IC50 of cells having the mutated allele (BRCA2^Δex11/Y3308X cells): 10-foldΔ
- FoldΔ: ratio of the IC50 of cells having the hemizygous wild-type allele to the IC50 of cells having the mutated allele (BRCA2^Δex11/Y3308X cells; listed as etoposide): 10 fold
- FoldΔ: ratio of the IC50 of cells having the hemizygous wild-type allele to the IC50 of cells having the mutated allele (BRCA2^Δex11/Y3308Y cells): NoΔ
- FoldΔ: ratio of the IC50 of cells having the hemizygous wild-type allele to the IC50 of cells having the mutated allele (BRCA2^Δex11/Y3308Y cells; listed as etoposide): did not differ from control cells
- FoldΔ: ratio of the IC50 of cells having the hemizygous wild-type allele to the IC50 of cells having the mutated allele (BRCA2^Δex11/P3292L cells): NoΔ
- FoldΔ: ratio of the IC50 of cells having the hemizygous wild-type allele to the IC50 of cells having the mutated allele (BRCA2^Δex11/P3292L cells; listed as etoposide): not significantly more sensitive
- FoldΔ: ratio of the IC50 of cells having the hemizygous wild-type allele to the IC50 of cells having the mutated allele (BRCA2^Δex11/P3280H cells): NoΔ
- FoldΔ: ratio of the IC50 of cells having the hemizygous wild-type allele to the IC50 of cells having the mutated allele (BRCA2^Δex11/P3280H cells; listed as etoposide): not significantly more sensitive
- FoldΔ: ratio of the IC50 of cells having the hemizygous wild-type allele to the IC50 of cells having the mutated allele (BRCA2^Δex11/S3291E cells): 3-foldΔ
- FoldΔ: ratio of the IC50 of cells having the hemizygous wild-type allele to the IC50 of cells having the mutated allele (BRCA2^Δex11/S3291E cells; listed as etoposide): 3 fold
- FoldΔ: ratio of the IC50 of cells having the hemizygous wild-type allele to the IC50 of cells having the mutated allele (BRCA2^Δex11/S3291A cells): NoΔ
- Difference in sensitivity of BRCA2 deficient cells to the drug [4]: 2.75 fold
- Etoposide sensitivity [5]: no increased etoposide sensitivity
- Etoposide sensitivity [6]: no increased etoposide sensitivity

Compound: O=c1cc(-c2ccc(O)cc2)oc2cc(O)cc(O)c12 [apigenin]
- Sensitivity of BRCA2-deficient cells compared to parental and heterozygous cells (in words) [2]: No differences in sensitivities

Compound: N.N.[Cl][Pt][Cl] [cisplatin]
- Sensitivity of BRCA2-deficient cells compared to parental and heterozygous cells (in words) [2]: greatly increased sensitivity

Compound: N.N.O=C([O-])C1(C(=O)[O-])CCC1.[Pt+2] [carboplatin]
- Sensitivity of BRCA2-deficient cells compared to parental and heterozygous cells (in words) [2]: greatly increased sensitivity

- FoldΔ: ratio of the IC50 of cells having the hemizygous wild-type allele to the IC50 of cells having the mutated allele [2]: 10 fold
Compound: COc1cccc2c1C(=O)c1c(O)c3c(c(O)c1C2=O)C[C@@](O)(C(=O)CO)C[C@@H]3O[C@H]1C[C@H](N)[C@H](O)[C@H](C)O1 [doxorubicin]
